Source: US20260034112A1, “MULTI-CYCLIC IRAK1 AND IRAK4 INHIBITING COMPOUNDS AND USES THEREOF” (CHILDREN'S HOSPITAL MEDICAL CENTER, priority 2022, published 2026)
In brackets after ≈: the same amount, converted by molar mass. Several values for one entry are separate records, joined by “and”; a condition that tells them apart may be missing. Identical values can stand only once. Like-named read-outs stand apart in the source and are kept apart here.

How the values were obtained:
[1] = system: NF-kB activity upon TLR2 stimulation with PAM3CSK4 in THP1-Blue NF-kB SEAP reporter cells; assay: THP1-Blue NF-kB SEAP reporter assay, TLR2 stimulation with PAM3CSK4; type: cell-based, human; conditions: for Suppression of TLR2-mediated activation of NF-kB: THP1 cells
[2] = system: NF-kB activity upon IL-1β stimulation (IL-1R) in THP1 NF-kB reporter cells; assay: THP1 NF-kB reporter assay, IL-1β stimulation; type: cell-based, human; conditions: for Suppression of NF-kB signaling through the IL-1 receptor: result in words
IRAK4 [3] = target: T1, IRAK4 (Homo sapiens, UniProt Q9NWZ3); assay: Reaction Biology Kinase Assay service, kinase inhibition (IC50); type: biochemical
T1 construct: purchased Reaction Biology (contract assay service)
T1 sequence (Q9NWZ3 1-460): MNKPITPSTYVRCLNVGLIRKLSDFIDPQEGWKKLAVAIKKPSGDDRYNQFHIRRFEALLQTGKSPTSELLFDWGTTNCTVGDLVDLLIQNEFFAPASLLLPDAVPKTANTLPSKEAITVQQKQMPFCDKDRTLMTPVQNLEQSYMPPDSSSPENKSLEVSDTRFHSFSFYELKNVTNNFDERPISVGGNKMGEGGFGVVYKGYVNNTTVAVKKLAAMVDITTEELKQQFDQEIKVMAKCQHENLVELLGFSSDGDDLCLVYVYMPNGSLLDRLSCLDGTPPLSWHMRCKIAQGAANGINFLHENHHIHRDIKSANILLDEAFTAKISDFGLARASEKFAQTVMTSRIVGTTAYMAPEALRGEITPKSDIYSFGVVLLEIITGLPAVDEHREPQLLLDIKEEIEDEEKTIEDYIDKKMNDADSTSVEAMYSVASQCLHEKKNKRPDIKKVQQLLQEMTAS

[4] = Survival in xenograft mice versus emavusertib and gilteritinib (FIG. 28); conditions: compared to emavusertib (CA-4948) and gilteritinib
IRAK1 [5] = target: T2, IRAK1 (Homo sapiens, UniProt P51617); assay: Reaction Biology Kinase Assay service, kinase inhibition (IC50); type: biochemical; conditions: for IRAK4:IRAK1 potency ratio: calculated from the IRAK1 and IRAK4 IC50
T2 construct: purchased Reaction Biology (contract assay service)
T2 sequence (P51617 whole entry): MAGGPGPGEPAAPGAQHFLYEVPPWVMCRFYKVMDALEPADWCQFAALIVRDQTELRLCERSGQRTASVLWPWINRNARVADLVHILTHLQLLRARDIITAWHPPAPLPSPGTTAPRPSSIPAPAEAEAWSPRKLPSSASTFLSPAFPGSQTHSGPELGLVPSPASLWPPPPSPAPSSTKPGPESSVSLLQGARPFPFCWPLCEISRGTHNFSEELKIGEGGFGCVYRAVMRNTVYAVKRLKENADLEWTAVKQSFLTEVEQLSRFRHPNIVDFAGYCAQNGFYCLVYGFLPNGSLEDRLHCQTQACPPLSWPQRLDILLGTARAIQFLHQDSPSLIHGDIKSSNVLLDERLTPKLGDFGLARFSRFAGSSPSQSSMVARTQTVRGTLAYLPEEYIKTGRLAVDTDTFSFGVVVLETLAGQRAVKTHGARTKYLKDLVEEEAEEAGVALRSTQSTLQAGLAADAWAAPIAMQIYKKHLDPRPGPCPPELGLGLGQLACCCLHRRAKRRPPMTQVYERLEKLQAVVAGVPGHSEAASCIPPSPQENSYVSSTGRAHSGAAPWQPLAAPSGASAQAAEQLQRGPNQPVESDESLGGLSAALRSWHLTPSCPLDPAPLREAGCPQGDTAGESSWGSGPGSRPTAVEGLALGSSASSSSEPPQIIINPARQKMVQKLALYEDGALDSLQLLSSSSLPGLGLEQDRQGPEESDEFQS

[6] = Plasma protein binding, human; type: in vitro ADME
PAMPA = type: in vitro ADME
THP1 cells = type: cell-based, human; conditions: AML cells versus vehicle
IRAK4 [7] = target: T1, IRAK4; assay: DiscoverX KINOMEscan Profiling Service, dissociation constant; type: binding
IRAK1 [8] = target: T2, IRAK1; assay: as above; type: binding
[9] = system: MDS/AML cell lines and patient-derived samples; assay: Clonogenic assay (colony formation in methylcellulose); type: cell-based, human; conditions: for Colony formation after in vitro exposure: AML(1714) cells, 500 nM for 21 days, then 250 live cells plated, 10 days
[10] = system: IRAK1 phosphorylation in MDS/AML cells; assay: Immunoblotting for phospho-IRAK1; type: cell-based, human; conditions: THP1 and MDSL cells, 500 nM, 24 hours
AML(1714) cells = assay: Xenograft of AML(1714) cells pre-treated in vitro for 21 days; type: in vivo; conditions: AML(1714) pre-treated 500 nM 21 days, xenografted NSGS mice
[11] = Pharmacokinetic analysis, drug concentration after PO dosing
Solubility = type: physicochemical
[12] = Plasma protein binding, mouse; type: in vitro ADME
[13] = Microsomal stability (Mic t½), rat; type: in vitro ADME
[14] = Microsomal stability (Mic t½), mouse; type: in vitro ADME
[15] = system: AML(64519), AML(0169), and MDS(76960) cells; assay: Patient-derived AML/MDS xenografts treated orally; type: in vivo, NSGS mice; conditions: PO daily, Compound 14 30 mg/kg or Compound 15 100 mg/kg; for Median survival: NSGS mice engrafted with AML(0169), vehicle 29 days; for Leukemic cell engraftment in the PB: AML(64519), AML(0169), MDS(76960) at day 40, 29, 48, versus vehicle
[16] = system: healthy donor CD34+ cells; assay: Myeloid and erythroid colony formation of healthy donor cells; type: cell-based, human; conditions: same concentrations as in the leukemic colony assay
[17] = Microsomal stability (Mic t½), human; type: in vitro ADME
[18] = system: MDS/AML cell lines and patient-derived samples; assay: Differentiation: Wright-Giemsa stains and CD38 immunophenotyping; type: cell-based, human
[19] = system: MDSL, THP1, OCIAML3, AML(1714), and AML(1294) cells; assay: Annexin V staining (apoptosis); type: cell-based, human; conditions: 500 nM, 48 hours
[20] = THP1 NF-kB reporter cells, read-out: IC50 vs. IL-1β (NF-kB activation)
[21] = functional biochemical assay, read-out: IRAK4 IC50
[22] = functional biochemical assay, read-out: IRAK1 IC50

## COc1cc2ncc(-c3nc(N[C@@H]4CCCNC4)c(F)cc3F)n2nc1C1CC1 [Compound 8]
[1]; Homo sapiens, THP-1, Table 1, unit nM, read-out: THP-1 NFkB PAM IC50
  IC50: 62.9 nM
[1]; Table 1, log of PAM IC50
  LOG (PAM): 1.80
[2]; Homo sapiens, THP-1, Table 1, unit nM, read-out: THP-1 NFkB IL1B IC50
  IC50: 58.7 nM
[2]; Table 1, log of IL1B IC50
  LOG (IL1B): 1.77
IRAK4 [3]; Table 1, log of IRAK4 IC50
  LOG (IRAK4): 0.19
IRAK4 [3]; Table 1, unit nM, read-out: Reaction Bio IRAK4 IC50
  IC50: 1.54 nM
[4]
  Survival in xenograft mice: enhanced survival
IRAK1 [5]; Table 1, log of IRAK1 IC50
  LOG (IRAK1): 1.43
IRAK1 [5]; Table 1, unit nM, read-out: Reaction Bio IRAK1 IC50
  IC50: 27.2 nM

## COc1ccc2ncc(-c3cccc(N[C@@H]4CCCNC4)n3)n2c1 [Compound 14]
[6]
  Plasma Prot Bind (% free - h): 26.5 % free
[1]; at 5 μM
  Suppression of TLR2-mediated activation of NF-kB: ~80%
PAMPA
  PAMPA: 746 10^−6 cm/s
THP1 cells
  Effect on genes of the IRAK1/4 AML signature: unremarkable effect
IRAK4 [7]
  Kd: 5 nM
IRAK1 [8]
  Kd: 150 nM
[9]
  Colony formation after in vitro exposure: only partially suppressed
[9]; MDS/AML cell lines, 250 nM or 1 μM
  Reduction in leukemia progenitor cell colony formation: 60-75%
[9]; all MDS/AML cell lines and patient-derived samples, 250 nM or 1 μM
  Reduction in leukemia progenitor cell colony formation: approximately 75%
[9]; patient-derived AML samples, 250 nM or 1 μM
  Reduction in leukemia progenitor cell colony formation: 80-85%
[2]; [20]
  IC50: 227 nM
[2]; THP1 NF-kB reporter cells
  Suppression of NF-kB signaling through the IL-1 receptor: completely suppress
[10]
  Phosphorylation of IRAK1: did not affect phosphorylation of IRAK1
AML(1714) cells
  Leukemic engraftment and AML development of pre-treated cells: only partially suppressed
[11]; PO 30 mg/kg, 0.25 h
  Mean Free Drug Concentration: 336 nM
  Mean Total Drug Concentration: 869 nM
[11]; PO 30 mg/kg, 0.5 h
  Mean Free Drug Concentration: 360 nM
  Mean Total Drug Concentration: 932 nM
[11]; PO 30 mg/kg, 1 h
  Mean Free Drug Concentration: 309 nM
  Mean Total Drug Concentration: 801 nM
[11]; PO 30 mg/kg, 2 h
  Mean Free Drug Concentration: 217 nM
  Mean Total Drug Concentration: 562 nM
[11]; PO 30 mg/kg, 4 h
  Mean Free Drug Concentration: 101 nM
  Mean Total Drug Concentration: 262 nM
[11]; PO 30 mg/kg, 8 h
  Mean Free Drug Concentration: 30 nM
  Mean Total Drug Concentration: 78 nM
[11]; PO 30 mg/kg, 24 h
  Mean Free Drug Concentration: 0 nM
  Mean Total Drug Concentration: 0 nM
Solubility
  Solubility: >48 mg/mL
[12]
  Plasma Prot Bind (% free - ms): 38.6 % free
[13]
  Tier 1 Mic t½ (r): >30 min
[14]
  Tier 2 Mic t½ (m): N.D./25/N.D. min
[15]
  Median survival: 33 days
  Leukemic cell engraftment in the PB: did not significantly suppress
IRAK4 [3]; [21]
  IC50: 5 nM
IRAK1 [5]
  IRAK4:IRAK1 potency ratio: 100
IRAK1 [5]; [22]
  IC50: > 500 nM

## CC1(c2ccc3ncc(-c4cccc(N[C@@H]5CCNC5)n4)n3c2)CC1 [Compound 15]
[6]
  Plasma Prot Bind (% free - h): 2.46 % free
[1]; THP1 NF-kB reporter cells, read-out: IC50 vs. Pam3CSK4 (TLR2-mediated NF-kB activation)
  IC50: 6.3 nM and 4.5 nM
[1]; at 100 nM
  Suppression of TLR2-mediated activation of NF-kB: completely suppressed
[16]
  Erythroid colony formation of healthy donor CD34+ cells: increased erythroid colony formation
  Myeloid cell colonies of healthy donor CD34+ cells: only modesty inhibited
[17]
  Tier 2 Mic t½ (h): 1.7 h
[18]; 500 nM, 12 days
  Morphology (Wright-Giemsa staining): heterogeneous morphologies and size and increased cytoplasmic to nuclear ratios
[18]; 12 days of treatment, versus Compound 14 or vehicle
  Expression of CD38: greater expression of CD38
PAMPA
  PAMPA: 495 10^−6 cm/s
THP1 cells
  Genes of the IRAK1/4 AML signature suppressed: ~65%
[19]
  Apoptosis (Annexin V staining): more effective than Compound 14 at mediating apoptosis
IRAK4 [7]
  Kd: 0.2 nM
IRAK1 [8]
  Kd: 2.2 nM
[9]
  Colony formation after in vitro exposure: significantly diminished colony formation
[9]; MDS/AML cell lines and patient-derived samples, 250 nM or 1 μM, complete in all samples except THP1
  Suppression of leukemia progenitor cell colony formation: complete suppression of leukemia progenitor cell colony formation
[2]; [20]
  IC50: 9.3 nM
[2]; THP1 NF-kB reporter cells
  Suppression of NF-kB signaling through the IL-1 receptor: completely suppress
[10]
  Phosphorylation of IRAK1: inhibited auto-phosphorylation of IRAK1
AML(1714) cells
  Leukemic engraftment and AML development of pre-treated cells: complete loss of leukemic engraftment and AML development
[11]; PO 100 mg/kg, 0.25 h
  Mean Free Drug Concentration: 263 nM
  Mean Total Drug Concentration: 3845 nM
[11]; PO 100 mg/kg, 0.5 h
  Mean Free Drug Concentration: 258 nM
  Mean Total Drug Concentration: 3764 nM
[11]; PO 100 mg/kg, 1 h
  Mean Free Drug Concentration: 207 nM
  Mean Total Drug Concentration: 3018 nM
[11]; PO 100 mg/kg, 2 h
  Mean Free Drug Concentration: 139 nM
  Mean Total Drug Concentration: 2034 nM
[11]; PO 100 mg/kg, 4 h
  Mean Free Drug Concentration: 109 nM
  Mean Total Drug Concentration: 1594 nM
[11]; PO 100 mg/kg, 8 h
  Mean Free Drug Concentration: 50 nM
  Mean Total Drug Concentration: 726 nM
[11]; PO 100 mg/kg, 24 h
  Mean Free Drug Concentration: 1 nM
  Mean Total Drug Concentration: 9 nM
Solubility
  Solubility: 31 mg/mL (≈ 93 mM)
[12]
  Plasma Prot Bind (% free - ms): 6.85 % free
[13]
  Tier 1 Mic t½ (r): >30 min
  Tier 2 Mic t½ (r): 68 min
[14]
  Tier 2 Mic t½ (m): 29 min
[15]
  Median survival: 40 days
  Leukemic cell engraftment in the PB: significantly reduced
IRAK4 [3]; [21]
  IC50: 0.9 nM
IRAK1 [5]
  IRAK4:IRAK1 potency ratio: 36
IRAK1 [5]; [22]
  IC50: 32 nM
